Measured values: ChEMBL document CHEMBL1133023, “Deoxy sugar analogues of triciribine: correlation of antiviral and antiproliferative activity with intracellular phosphorylation” (J Med Chem, 2000)

Columns and labels:
Format in all cases: functional, cell-based
[1] = Antiviral activity was tested using an enzyme-linked immunosorbent assay (ELISA) to detect HSV-1 (herpes simplex virus type 1) using BSC-1 cells; conditions: Cercopithecidae
[2] = tested on: KB; test: Inhibition of KB cell growth was assessed; conditions: Homo sapiens
[3] = tested on: HFF; test: Tested for visual cytotoxicity on uninfected HFF cells; conditions: Homo sapiens
[4] = tested on: L1210; test: Tested in vitro for cytotoxicity against murine L1210 leukemic cells; conditions: Mus musculus
[5] = tested on: HFF; test: HCMV plaque assay was performed using HFF cells and effect was calculated as a percentage of reduction in number of plaques; conditions: Homo sapiens
[6] = tested on: CEM-SS; test: Tested for visual cytotoxicity on uninfected CEM-SS cells; conditions: Homo sapiens
[7] = tested on: CEM-SS; test: Intracellular phosphorylation (100 uM) in uninfected CEM-SS cells was studied after 24 hrs of Incubation time; Value ranges from 3-5; conditions: Homo sapiens
[8] = tested on: CEM-SS; test: Intracellular phosphorylation (100 uM) in uninfected CEM-SS cells was studied after 24 hrs of Incubation time; conditions: Homo sapiens

| Structure (SMILES) | IC50 [1] | IC50 [2] | IC50 [3] | IC50 [4] | IC50 [5] | IC50 [6] | Concentration [7] | Concentration [8] |
| --- | --- | --- | --- | --- | --- | --- | --- | --- |
| CN1N=C(N)c2cn([C@H]3CC[C@@H](CO)O3)c3ncnc1c23 | > 100 µM | > 100 µM | > 100 µM | 25 µM | > 100 µM | > 100 µM | – | 45 µM |
| CN1N=C(N)c2cn(C3C[C@@H](O)[C@@H](CO)O3)c3ncnc1c23 (some centres not stated) | > 100 µM | > 100 µM | > 100 µM | > 100 µM | > 100 µM | > 100 µM | < 5 µM | – |
| C[C@H]1OC(n2cc3c4c(ncnc42)N(C)N=C3N)[C@H](O)[C@@H]1O (some centres not stated) | > 100 µM | > 100 µM | > 100 µM | > 100 µM | > 100 µM | > 100 µM | < 5 µM | – |

Now from value to molecule, other results behind:

| IC50 [1] | IC50 [2] | Structure (SMILES) | IC50 [3] | IC50 [4] | IC50 [5] | IC50 [6] | Concentration [7] | Concentration [8] |
| --- | --- | --- | --- | --- | --- | --- | --- | --- |
| > 100 µM | > 100 µM | CN1N=C(N)c2cn([C@H]3C=C[C@@H](CO)O3)c3ncnc1c23 | > 100 µM | > 100 µM | > 100 µM | > 100 µM | < 5 µM | – |
| 6 µM | 16 µM | CN1N=C(N)c2cn([C@@H]3O[C@H](CO)C[C@H]3O)c3ncnc1c23 | > 100 µM | 2.2 µM | > 100 µM | 100 µM | – | 276 µM |
| 65 µM | > 100 µM | CN1N=C(N)c2cn(C3O[C@H](CO)[C@H]4O[C@H]34)c3ncnc1c23 (some centres not stated) | > 100 µM | – | > 100 µM | > 100 µM | – | < 5 µM |
| 20 µM | 10 µM | CN1N=C(N)c2cn([C@@H]3O[C@H](COP(=O)(O)O)[C@@H](O)[C@H]3O)c3ncnc1c23 [TRICIRIBINE PHOSPHATE] | 19 µM | 0.025 µM | 0.8 µM | > 1 µM | – | – |
